Source: patent US7728025B2, “2-heteroaryl-substituted benzimidazole derivative” (Banyu Pharmaceutical Co., Ltd., priority 2003, dated 2010)

Target: T1, recombinant human liver GK (Homo sapiens, UniProt P35557)
T1 construct: made in house; host or cells: E. coli
T1 sequence (P35557 1-466 isoform P35557-2): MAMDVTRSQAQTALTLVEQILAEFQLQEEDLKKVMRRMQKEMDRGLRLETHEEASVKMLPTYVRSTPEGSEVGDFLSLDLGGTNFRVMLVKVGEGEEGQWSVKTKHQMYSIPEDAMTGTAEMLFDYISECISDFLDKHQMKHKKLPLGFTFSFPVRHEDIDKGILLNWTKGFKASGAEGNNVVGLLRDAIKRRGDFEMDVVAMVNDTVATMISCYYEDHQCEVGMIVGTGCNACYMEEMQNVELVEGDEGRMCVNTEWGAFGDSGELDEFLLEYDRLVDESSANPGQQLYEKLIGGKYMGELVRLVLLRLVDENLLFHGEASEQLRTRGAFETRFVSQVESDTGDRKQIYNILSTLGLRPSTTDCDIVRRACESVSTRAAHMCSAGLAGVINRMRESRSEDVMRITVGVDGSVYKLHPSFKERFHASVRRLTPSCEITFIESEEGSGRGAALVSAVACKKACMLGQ
Assay: Glucokinase (GK) activation assay: Thio-NADH formation coupled with G6PDH, absorbance at 405 nm
Assay type: biochemical
Conditions: final glucose concentration 2.5 mM, 30° C.; for Emax: OD level of DMSO control set as 100%
Description: The glucokinase activity may be determined not by directly measuring glucose-6-phosphate but by measuring the level of Thio-NADH, which is produced when a reporter enzyme, glucose-6-phosphate dehydrogenase produces phosphogluconolactone from glucose-6-phosphate, and based on the level, the degree of glucokinase activity of the compound tested may be determined.
In this assay, used was a recombinant human liver GK, which was expressed by E. coli as a FLAG fusion protein therein and was purified by […] M2 AFFINITY GEL (Sigma).
Using a 96-well plate, the assay was carried out at 30° C. 69 μl of an assay buffer (25 mM Hepes Buffer/pH=7.2, 2 mM MgCl2, 1 mM ATP, 0.5 mM TNAD, 1 mM dithiothreitol) was put into the plate, and 1 μl of a DMSO solution of the compound or DMSO alone as a control was added thereto. Next, 20 μl of an enzyme mixture (FLAG-GK, 20 U/ml G6PDH) cooled in ice was added to it, and 10 μl of a substrate, 25 mM glucose was added to it, and the reaction was initiated (final glucose concentration=2.5 mM).
After the start of the reaction, the increase in the absorbance at 405 nm was measured for 10 minutes at intervals of 30 seconds, and the increase for the first 5 minutes was used for evaluating the compound tested. FLAG-GK was added so that the absorbance increase after 5 minutes in the presence of 1% DMSO could be from 0.05 to 1.0.
The OD level of the DMSO control was set as 100%; and the OD level of the test compound at different concentrations was determined. From the OD level at each concentration, Emax (%) and EC50 (μM) were computed and used as the index of the GK-activating potency of the compound.

Row | Emax [%] | EC50 [nM] | Structure (SMILES)
1 | 832 | 1400 | COc1ccccc1Oc1cc(Oc2cccnc2)cc2[nH]c(-c3ccccn3)nc12 [Example 67, 4-(2-Methoxy-phenoxy)-2-pyridin-2-yl-6-(pyridin-3-yloxy)-1H-benzimidazole]
2 | 768 | 2300 | CC(=O)c1ccccc1Oc1cc2nc(-c3ccccn3)[nH]c2cc1Oc1ccc(C(=O)N(C)C)cc1 [Example 26, 5-(2-Acetyl-phenoxy)-6-(4-dimethylcarbamoyl-phenoxy)-2-pyridin-2-yl-1H-benzimidazole]
